From patent US20250043299A1, “POINT MUTATIONS THAT BOOST AROMATIC AMINO ACID PRODUCTION AND CO2 ASSIMILATION IN PLANTS” (Wisconsin Alumni Research Foundation, priority 2021, published 2025)
“And” between values parts separate entries of the source, which are not always exact repeats. Identical values can stand only once. “Also recorded” adds a separate entry of the source.

Legend:
[1] = molecular target: T1, Arabidopsis thaliana DHS1 (AtDHS1), wild type (DHS1^WT), SEQ ID NO:1 (Arabidopsis thaliana, UniProt P29976); test: DHS enzyme assay with effector, Arabidopsis DHS1 WT; format: biochemical; conditions: DHS1^WT; 4 mM E4P, 4 mM PEP, pH 7.4, 37° C.
T1 construct: without the predicted plastid transit peptide (amino acid residues; 49-525, 34-507, and 52-527, respectively); made in house; host or cells: E. coli Rosetta-2
Procedure: (§1) To generate DHS proteins with individual sota mutations via site-directed mutagenesis, these pET28a plasmid templates were diluted by 500-fold, mixed with 0.04 U/μL Phusion DNA polymerase (Thermo Scientific), 0.2 mM deoxynucleoside triphosphates (dNTPs), 1× Phusion reaction buffer (Thermo Scientific), and 0.5 μM forward and reverse mutagenesis primers (Table 10). The PCR reaction was run using the following protocol: 98° C. for 30 s followed by 20 cycles of 10 s at 98° C., 20 s at 70° C., 4.5 min at 72° C. with a final extension at 72° C. for 10 min. The PCR products were purified using a QIAquick Gel Extraction Kit (QIAGEN), treated with FastDigest DpnI (Thermo Scientific) to digest methylated plasmid template DNA for 20 min at 37° C., and transformed into E. coli cells. The mutagenized pET28a plasmids were sequenced to confirm that no errors were introduced during the mutagenesis process.
The DHS enzyme assays were conducted using the colorimetric method that we recently described (9). Briefly, the enzyme solution (7.7 μl) containing 50 mM Hepes (pH 7.4) was preincubated with an effector molecule(s) at room temperature for 15 min. For assays using recombinant protein and enzyme fractions isolated from plant leaves, 0.01 to 0.1 μg and approximately 50 μg of proteins were used, respectively. After adding 0.5 μl of 0.1 M dithiothreitol, the samples were further incubated at room temperature for 15 min. During these incubations, the substrate solution containing 50 mM Hepes (pH 7.4), 2 mM MnCl2, 4 mM E4P, and 4 mM PEP at final concentration was preheated at 37° C. The enzyme reaction was started by adding 6.8 μl of the substrate solution, then incubated at 37° C. for 30 min, and terminated by adding 30 μl of 0.6 M trichloroacetic acid. After a brief centrifugation, 5 μl of 200 mM NaIO4 (sodium meta-periodate) in 9 N H3PO4 was added to oxidize the enzymatic product and to incubate at 25° C. for 20 min. To stop the oxidation reaction, 20 μl of 0.75 M NaAsO2 (sodium arsenite), which was dissolved in 0.5 M Na2SO4 and 0.05 M H2SO4, was added and immediately mixed. […]

[2] = molecular target: T2, Arabidopsis thaliana DHS2 (AtDHS2), wild type (DHS2^WT), SEQ ID NO:2 (Arabidopsis thaliana, UniProt Q00218); test: DHS enzyme assay with effector, Arabidopsis DHS2 WT; format: biochemical; conditions: 4 mM E4P, 4 mM PEP, pH 7.4, 37° C.
T2 construct: without the predicted plastid transit peptide (amino acid residues; 49-525, 34-507, and 52-527, respectively); made in house; host or cells: E. coli Rosetta-2
Procedure: as §1
The DHS enzyme assays were conducted using the colorimetric method that we recently described (9). Briefly, the enzyme solution (7.7 μl) containing 50 mM Hepes (pH 7.4) was preincubated with an effector molecule(s) at room temperature for 15 min. For assays using recombinant protein and enzyme fractions isolated from plant leaves, 0.01 to 0.1 μg and approximately 50 μg of proteins were used, respectively. […]

[3] = molecular target: T3, DHS2^A4 (Arabidopsis thaliana, UniProt Q00218, G222S); test: Differential scanning fluorimetry (DSF) protein-ligand affinity analysis, DHS2^A4; format: binding; conditions: ligand at 1 mM
T3 construct: without the predicted plastid transit peptide (amino acid residues; 49-525, 34-507, and 52-527, respectively); made in house; host or cells: E. coli
Procedure: (§2) To examine the impact of the sota mutations on the interaction between DHS and AAA effectors (FIG. 22), a differential scanning fluorimetry (DSF) analysis (48) was conducted using the recombinant DHS2^WT and DHS2^A4 proteins. […] The fluorescence signal was monitored during the stepwise increase in temperature (1° C. per minute from 25° C. to 95° C.). The Tm was calculated by nonlinear regression analysis using the Boltzmann sigmoidal equation (48).

[4] = molecular target: T4, Arabidopsis thaliana DHS2 (SEQ ID NO:2) variant DHS2^A4 (sotaA4), G222S (Arabidopsis thaliana, UniProt Q00218, G222S); test: Differential scanning fluorimetry protein-ligand affinity analysis, DHS2 sotaA4; format: binding; conditions: ligand at 1 mM
T4 construct: without the predicted plastid transit peptide (amino acid residues; 49-525, 34-507, and 52-527, respectively); made in house; host or cells: E. coli
Procedure: (A) Simplified pathway map of AAAs and AAA-derived metabolites used in the effector screening. […] Data are means±SEM (n=3 independent assays).
as §2

[5] = molecular target: T5, DHS1^WT (Arabidopsis thaliana, UniProt P29976); conditions: AAAs, chorismate, caffeate: from Yokoyama et al., Plant Cell, 2021; cited from earlier work
T5 construct: without the predicted plastid transit peptide (amino acid residues; 49-525, 34-507, and 52-527, respectively); made in house; host or cells: E. coli Rosetta-2

[6] = test system: DHS3^WT; conditions: AAAs: from Yokoyama et al., Plant Cell, 2021; cited from earlier work
[7] = molecular target: T2, Arabidopsis thaliana DHS2 (AtDHS2), wild type (DHS2^WT), SEQ ID NO:2; conditions: reference 9; cited from earlier work

T2 sequence (Q00218 34-507): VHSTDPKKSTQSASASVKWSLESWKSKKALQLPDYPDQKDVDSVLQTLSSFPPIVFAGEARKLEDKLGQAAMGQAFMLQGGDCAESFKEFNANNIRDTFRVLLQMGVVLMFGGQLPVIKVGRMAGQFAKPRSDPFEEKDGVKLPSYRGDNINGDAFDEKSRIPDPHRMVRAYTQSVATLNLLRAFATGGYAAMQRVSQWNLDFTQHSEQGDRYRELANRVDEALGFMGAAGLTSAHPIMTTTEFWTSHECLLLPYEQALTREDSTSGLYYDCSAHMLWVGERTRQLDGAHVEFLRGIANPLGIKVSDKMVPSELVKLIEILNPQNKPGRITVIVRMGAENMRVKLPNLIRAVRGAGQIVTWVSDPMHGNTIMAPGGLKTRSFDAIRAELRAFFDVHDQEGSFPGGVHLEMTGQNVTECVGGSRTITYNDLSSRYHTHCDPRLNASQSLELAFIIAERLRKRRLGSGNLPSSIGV
T3 sequence (Q00218 34-507 G222S): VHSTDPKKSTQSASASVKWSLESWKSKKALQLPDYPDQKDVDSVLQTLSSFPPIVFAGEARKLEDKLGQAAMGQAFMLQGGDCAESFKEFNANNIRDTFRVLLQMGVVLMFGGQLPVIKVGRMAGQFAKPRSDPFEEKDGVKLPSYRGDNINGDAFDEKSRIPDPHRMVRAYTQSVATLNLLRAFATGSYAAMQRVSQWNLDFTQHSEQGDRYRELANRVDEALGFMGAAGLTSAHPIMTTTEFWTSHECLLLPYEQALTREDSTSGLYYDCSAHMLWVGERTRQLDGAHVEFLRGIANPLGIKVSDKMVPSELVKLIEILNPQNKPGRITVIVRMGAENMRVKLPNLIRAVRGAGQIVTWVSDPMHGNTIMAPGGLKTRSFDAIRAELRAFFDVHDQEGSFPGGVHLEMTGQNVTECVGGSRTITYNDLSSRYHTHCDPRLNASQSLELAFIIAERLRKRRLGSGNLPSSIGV
T4 sequence (Q00218 34-507 G222S): as above
T5 sequence (P29976 49-525): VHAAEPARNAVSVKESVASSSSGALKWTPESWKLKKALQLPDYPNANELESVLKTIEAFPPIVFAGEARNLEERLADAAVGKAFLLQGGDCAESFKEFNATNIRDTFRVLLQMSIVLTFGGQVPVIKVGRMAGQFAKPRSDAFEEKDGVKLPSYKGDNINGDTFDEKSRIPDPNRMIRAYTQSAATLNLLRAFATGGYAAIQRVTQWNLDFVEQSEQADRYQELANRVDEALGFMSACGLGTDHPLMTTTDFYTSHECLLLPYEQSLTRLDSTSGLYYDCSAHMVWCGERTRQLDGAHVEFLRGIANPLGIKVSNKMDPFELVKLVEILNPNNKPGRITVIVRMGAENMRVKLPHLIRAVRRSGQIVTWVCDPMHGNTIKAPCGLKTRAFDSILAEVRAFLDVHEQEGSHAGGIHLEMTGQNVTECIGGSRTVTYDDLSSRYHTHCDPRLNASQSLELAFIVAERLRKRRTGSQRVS
T1 sequence (P29976 49-525): as above

## O=C(O)C(=O)Cc1ccc(O)cc1 [HPP, 4-Hydroxyphenylpyruvate]
[1]
  IC50: 305 µM
[2]
  IC50: 48.4 µM

## O=C(O)C(=O)Cc1c[nH]c2ccccc12 [IPA, indole-3-pyruvate]
[2]
  IC50: 58 µM and 58.3 µM

## N[C@@H](Cc1c[nH]c2ccccc12)C(=O)O [Trp, tryptophan]
[3]
  effect on melting temperature (Tm) / binding of DHS2^A4: still binds; also recorded: significantly increased the Tm
[4]
  binding (DSF): still binds Tyr and Trp
[5]
  IC50 of effector molecule on DHS1^WT: Not inhibited
[6]
  IC50 of effector molecule on DHS3^WT: Not inhibited
[7]
  inhibition of DHS2: inhibit Arabidopsis DHS2
